According to patent US20220023269A1, “Methods Of Treating Diabetes In Severe Insulin-Resistant Diabetic Subjects” (Balticgruppen Bio AB, priority 2018, published 2022):

Experiments:
[1] = system: primary human hepatocytes; assay: [1,2-14C] acetate incorporation into total lipids; assay type: cell-based; details: 0.625, 1.25, 2.5 or 5 μM
Method: Primary human hepatocytes (65,000-130,000 cells/well in 24-well dishes) were treated with vehicle control, 0.625, 1.25, 2.5 or 5 μM test material in serum free Williams' medium E, 2 hours, before addition of 0.25 μCi [1,2-^14C]-acetate/well for an additional 4 hours. 200 μl 0.5% trypsin was used to detach the cells before addition of 800 μl chloroform/methanol (2:1) and 500 μl 4 mM MgCl2. The samples were vortexed and spun at 14,000 rpm, 2 minutes before discarding the aqueous layer. The procedure was repeated twice, first with 700 μl chloroform/methanol (2:1) and 500 μl 4 mM MgCl2 and then 400 μl chloroform/methanol (2:1) and 500 μl 4 mM MgCl2. The organic phase was transferred into a scintillation vial and evaporated to dryness by a stream of nitrogen. The residue was dissolved in 3 ml liquid scintillation cocktail (Optiphase HiSafe 3, Perkin Elmer #1200.437) and 14 C determined for 1 minute in a Wallac 1414 beta counter (Perkin Elmer). Before lipid extraction, 10 μl samples were used to determine protein concentration. 14 C-values were normalised to cellular protein concentration.

aged, lean B6 mice = assay: Treadmill endurance test; assay type: in vivo; details: 20 mg/kg/day gavage, 30 days
Method: One week prior to the test mice went through a familiarization session of 5 minutes on the treadmill. Running protocol as follows: 15 minutes at 18.8 m/minute, 5 minutes at 24.4 m/minute and 27.1 m/minute until exhaustion. At exhaustion, blood lactate levels were measured using a lactate test meter (Arkray).

[2] = system: CBA mice on HFD (DIO mice); assay: CBA mice on test material-HFD (0.4, 0.8, 2 mg/g) for 7 w; assay type: in vivo
Method: 12 weeks old CBA mice were randomised into a HFD and three test material-HFD groups (0.4 mg/g, 0.8 mg/g, and 2 mg/g) for 7 weeks. 16-17 weeks old CBA mice on regular diet was used as controls where indicated.
Animals were housed at 12:12 hour light/dark cycle in a temperature/humidity controlled (22° C./50% humidity) room and ad libitum feeding with either standard chow (Special Diet Service #801730), high fat diet (HFD) (Research diets, Inc. #D12492) or HFD (Research diets, Inc. #D12492) custom formulated with test material at 2 mg/g test material, 0.8 mg/g test material and 0.4 mg/g test material, respectively.
All cell lines were lysed in 0.1 M Tris-HCl, pH 6.8, 2% SDS, 10 mM sodium fluoride (SIGMA #S7920), 10 mM β-glycerophosphate (SIGMA #G6376), and 1 mM sodium vanadate (SIGMA #72060) and supernatant collected after 1 minute at 14,000 rpm. Islets (human and mouse) were lysed in 0.1 M Tris-HCl, pH 6.8, 2% SDS, protease inhibitor (Roche #04 693 124 001) and phosphatase inhibitor (Roche #04 906 837 001). Right calf muscle, heart, iWAT, and interscapular BAT was crushed in a pestle using liquid nitrogen and homogenised in ice cold RIPA buffer (150 mM sodium chloride (SIGMA #S7653), 1.0% NP40 (USB), 0.5% sodium deoxycholate (SIGMA #D6750), 0.1% SDS, 50 mM Tris pH 8.0, 20 mM sodium pyrophosphate (SIGMA #71515), 10 mM sodium fluoride, 10 mM β-glycerolphosphate, 1 mM sodium vanadate and protease inhibitor cocktail (Roche #04693124001), 1 tablet/10 ml lysis buffer). The supernatant was collected after 2 min at 14,000 rpm. This procedure was repeated until all fat was eliminated and the supernatant was clear, at 4° C. Samples were analysed on 4-15% polyacrylamide gels. Values were normalised toward AMPKα, β-Actin, GAPDH or the respective non-phosphorylated counterpart. […]

[3] = 0.4, 0.8 and 2 mg/g in HFD, 6 w

For O=C(Nc1nc(=O)n(Cc2ccc(Cl)cc2)s1)c1ccc(Cl)cc1 [test material, 4-chloro-N-[2-[(4-chlorophenyl)methyl]-3-oxo-1,2,4-thiadiazol-5-yl]benzamide], the lipid synthesis [1] was “dose-dependently suppressed lipid synthesis”, the “blood lactate levels after endurance test” value (aged, lean B6 mice) was “significantly reducing the increase in blood lactate levels” and the “endurance capacity (running distance to exhaustion)” value (aged, lean B6 mice; vs vehicle) was “significantly improved endurance capacity”. For the same molecule, the “expression of Cd36 and Cpt1b in BAT” value ([2]; 2 mg/g in HFD) was “significantly increased the expression of Cd36”, the “expression of Fas, Scd1 and Acc1 in BAT” value ([2]; 2 mg/g in HFD) was “potently reduced the expression” and the “weights of BAT pads” value ([2]; 2 mg/g in HFD, vs HFD) was “reduced”. For the same molecule, the “weights of iWAT and eWAT fat pads” value ([2]; 2 mg/g in HFD, vs HFD) was “markedly lower weights”, the “dysglycemia (fasted blood glucose)” value [2, 3] was “potently prevented” and the “hyperinsulinemia (fasted insulin)” value [2, 3] was “potently prevented”. For the same molecule, the “insulin resistance (HOMA-IR)” value [2, 3] was “potently prevented”, the “pAMPK in calf muscle” value ([2]; 0.4, 0.8 and 2 mg/g in HFD, 7 w) was “dose-dependently increased pAMPK” and the heart glycogen content ([2]; 0.8 or 2 mg/g in HFD, 7 w) was “reduced in a dose-dependent manner”. The heart weight/tibia length ([2]; 0.8 or 2 mg/g in HFD, 7 w) was “did not cause an increase in heart weight/tibia length”, the “pAMPK levels in the heart” value ([2]; 0.8 or 2 mg/g in HFD, 7 w) was “significantly increased pAMPK levels in the heart” and the “Cpt1b mRNA levels in liver” value ([2]; DIO mice) was “dose-dependently increased Cpt1b”. For the same molecule, the hepatic steatosis ([2]; DIO mice) was “prevented and reduced hepatic steatosis”, the “Acc2, Fas and Scd1 mRNA levels in liver” value ([2]; DIO mice, dose-dependent) was “decreased Acc2, Fas, and Scd1 mRNA levels” and the “UCP1 expression in BAT and iWAT” value ([2]; slightly, dose-dependent) was “reduced UCP1 expression”. The “Atgl mRNA levels in iWAT” value ([2]; test material-HFD 7 w) was “increased both p-S406 ATGL levels and Atgl mRNA levels” and the “p-S406 ATGL levels in iWAT” value ([2]; test material-HFD 7 w) was “increased both p-S406 ATGL levels and Atgl mRNA levels”.
